pIC50: −log10 of the molar value. Where two headings read alike, the source gives them in different places.
Columns and labels:
prolyl endopeptidase = biological target: T1, prolyl endopeptidase (Sus scrofa, UniProt P23687); experiment: Prolyl endopeptidase-inhibitory activity in vitro (porcine kidney enzyme, Z-Gly-Pro-p-nitroanilide substrate); format: biochemical; conditions: for IC50: porcine kidney enzyme, pH 7.8, 37° C., 20 min
T1 construct: porcine kidney enzyme which was prepared according to methods of Walter and Yoshimoto et al; from tissue; host or cells: porcine kidney
T1 sequence (P23687 whole entry): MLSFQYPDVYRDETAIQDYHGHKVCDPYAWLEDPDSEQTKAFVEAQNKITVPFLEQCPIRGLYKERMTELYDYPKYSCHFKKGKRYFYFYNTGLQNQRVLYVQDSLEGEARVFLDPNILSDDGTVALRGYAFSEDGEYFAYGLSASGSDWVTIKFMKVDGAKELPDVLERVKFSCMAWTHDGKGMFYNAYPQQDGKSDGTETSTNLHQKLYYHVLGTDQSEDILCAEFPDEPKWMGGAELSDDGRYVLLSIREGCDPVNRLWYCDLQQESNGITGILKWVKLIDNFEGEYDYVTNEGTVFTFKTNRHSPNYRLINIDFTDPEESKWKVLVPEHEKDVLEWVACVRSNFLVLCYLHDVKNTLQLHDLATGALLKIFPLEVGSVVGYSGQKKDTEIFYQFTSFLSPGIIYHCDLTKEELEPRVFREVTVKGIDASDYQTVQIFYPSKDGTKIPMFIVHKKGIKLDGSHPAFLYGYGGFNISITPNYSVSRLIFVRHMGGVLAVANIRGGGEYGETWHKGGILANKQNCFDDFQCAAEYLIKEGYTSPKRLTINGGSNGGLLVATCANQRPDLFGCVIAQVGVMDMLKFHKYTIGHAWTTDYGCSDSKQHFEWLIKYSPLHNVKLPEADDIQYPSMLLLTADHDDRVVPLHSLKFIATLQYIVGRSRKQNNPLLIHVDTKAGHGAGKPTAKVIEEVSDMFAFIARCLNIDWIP
Description: A test compound (2 mg) was dissolved in DMSO (2 ml) and diluted to appropriate concentrations with DMSO. Z-Gly-Pro-p-nitroanilide (8 mg), a substrate was dissolved in dioxane (5 ml), water (27 ml) and 0.2 M phosphate buffer (pH 7.8, 40 ml). The substrate solution ([…]) was mixed with an inhibitor solution (3 ml) and followed by addition of above mentioned porcine kidney enzyme solution ([…]). Immediately after the mixing the UV absorbance at 405 nm was detected. The mixture was incubated at 37° C. for 20 min. and the UV absorbance was checked. A standard curve of absorbance (OD) vs. p-nitroaniline concentration was used to relate the absorbance to amount of substrate hydrolyzed. […] The inhibiting activity was obtained following the equation below. The IC50 value was estimated from the inhibitor concentration vs. inhibitory activity curve.
The percent inhibitory activity (%)=(ΔODc -ΔODs)/ΔODc ×100
ΔODs : ΔOD for test sample

[1] = test system: brain prolyl endopeptidase; experiment: Ex vivo prolyl endopeptidase inhibition in brain after oral administration; conditions: rat, p.o.; for PEP Actively in brain (% of control): 10 mg/kg
Description: Ex vivo enzyme inhibition studies were performed to assess the degree of CNS availability and prolyl endpeptidase inhibition after oral administration. Compounds were dissolved in a minimal mount of ethanol (about 10% total volume) and made up to the appropriate volume with 1% polyoxyether sorbitan monooleate (Tween 80). Rats were dosed p.o. and at the appropriate times killed. The brains were removed, homogenised in the ice-cooled assay buffer, and centrifugated.

## O=C(c1nc2ccccc2s1)[C@@H]1CCCN1C(=O)[C@@H]1CCCN1C(=O)CCCc1ccccc1 [Example 1, 2-[1-{1-(4-Phenylbutanoyl)pyrrolidin-2(S)-ylcarbonyl}pyrrolidin-2(S)-ylcarbonyl]benzothiazole]
Prolyl endopeptidase; read-out: IC50 (converted)
  IC50: 2.14 nM
[1]; 0.25 hr
  PEP Actively in brain (% of control): 42 % of control
[1]; 0.5 hr
  PEP Actively in brain (% of control): 21 % of control
[1]; 1 hr
  PEP Actively in brain (% of control): 32 % of control
[1]; 2 hr
  PEP Actively in brain (% of control): 47 % of control
[1]; 4 hr
  PEP Actively in brain (% of control): 69 % of control
[1]; 6 hr
  PEP Actively in brain (% of control): 98 % of control
[1]; ex vivo, in words
  brain prolyl endopeptidase inhibition (potency compared with SUAM-1221): more potent than SUAM-1221
  duration of action on brain prolyl endopeptidase (compared with SUAM-1221): longer duration of action

## O=C(c1cncs1)[C@@H]1CCCN1C(=O)[C@@H]1CCCN1C(=O)CCCc1ccccc1 [Example 33, 5-[1-{1-(4-Phenylbutanoyl)pyrrolidin-2(S)-ylcarbonyl}pyrrolidin-2(S)-ylcarbonyl]thiazole]
Prolyl endopeptidase
  IC50: 0.275 µg/mL

## Cc1nc(C(=O)[C@@H]2CCCN2C(=O)[C@@H]2CCCN2C(=O)CCCc2ccccc2)sc1C [Example 27, 4,5-Dimethyl-2-[1-{1-(4-phenylbutanoyl)pyrrolidin-2(S)-ylcarbonyl}pyrrolidin-2(S)-ylcarbonyl]thiazole]
Prolyl endopeptidase
  pIC50: 8.22

Reference: patent US5547978A, “Derivatives of pyrrolidin-2-ylcarbonylheterocyclic compounds” (priority 1994, dated 1996)
